Source: publication PMC4633020 (Journal of medicinal chemistry, 2015)
In brackets after ≈: the same amount, converted by molar mass.

Tests used:
Experiment in all cases: MIC, additional E. faecium strains
Type in all cases: cell-based
[1] = tested on: E. faecium ATCC BAA 2127; conditions: Enterococcus faecium, BAA2127
[2] = tested on: E. faecium C9; conditions: Enterococcus faecium
[3] = tested on: E. faecium 119-39A (Van S); conditions: Enterococcus faecium

## CN[C@H](CC(C)C)C(=O)N[C@H]1C(=O)N[C@@H](CC(N)=O)C(=O)N[C@H]2C(=O)N[C@H]3C(=O)N[C@H](C(=O)N[C@H](C(=O)O)c4cc(O)cc(O)c4-c4cc3ccc4O)[C@H](O)c3ccc(c(Cl)c3)Oc3cc2cc(c3O[C@@H]2O[C@H](CO)[C@@H](O)[C@H](O)[C@H]2O[C@H]2C[C@](C)(N)[C@H](O)[C@H](C)O2)Oc2ccc(cc2Cl)[C@H]1O [vancomycin]
[1]
  MIC: 1 µg/mL (≈ 0.69 µM)
[2]
  MIC: 2 µg/mL (≈ 1.38 µM)
[3]
  MIC: 0.5 µg/mL (≈ 0.345 µM)
